Consider one compound from PubChem BioAssay AID1671318.

This assay concerns the target Tyrosine-protein kinase Lyn (Homo sapiens) (UniProt P07948). As to the kind of experiment: LYN A kinase inhibition, dose response, biochemical, LYN A isoform, Z'-LYTE, FRET readout (AID 1671318). Particulars: Z'-LYTE FRET kinase assay, recombinant LYN A.

Usually pIC50 stands for the negative decadic logarithm of the IC50, by convention in mol/L.

Molecules are shown by their SMILES. pIC50: −log10 of the molar value.

Chain of Tyrosine-protein kinase Lyn (Homo sapiens) (P07948 whole entry, looked up, canonical isoform): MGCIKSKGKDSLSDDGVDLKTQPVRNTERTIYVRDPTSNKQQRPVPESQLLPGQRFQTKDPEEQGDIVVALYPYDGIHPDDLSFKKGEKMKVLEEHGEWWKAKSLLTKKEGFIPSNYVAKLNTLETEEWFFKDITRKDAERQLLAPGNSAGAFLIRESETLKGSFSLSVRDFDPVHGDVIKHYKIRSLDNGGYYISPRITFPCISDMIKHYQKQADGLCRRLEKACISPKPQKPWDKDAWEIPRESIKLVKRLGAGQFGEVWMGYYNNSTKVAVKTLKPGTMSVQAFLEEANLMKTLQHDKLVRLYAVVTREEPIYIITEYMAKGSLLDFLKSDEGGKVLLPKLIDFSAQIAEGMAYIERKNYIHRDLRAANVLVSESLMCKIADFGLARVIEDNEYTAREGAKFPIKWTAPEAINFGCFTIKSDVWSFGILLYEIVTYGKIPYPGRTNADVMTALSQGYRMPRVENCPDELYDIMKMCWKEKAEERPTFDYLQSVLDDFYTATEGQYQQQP

Take `COc1cc2ncnc(Nc3cccc(Cl)c3)c2cc1OC`: the negative logarithm of the IC50 (pIC50) was 6.68.
